Test results published in PMC4770093, “The role of kinetic context in apparent biased agonism at GPCRs” (Nature Communications, 2016).
Where “and” joins values, the source holds several entries; their conditions need not be identical. Equal values may be shown once.

What was measured:
D2LR [1] = target: T1, D2LR (Homo sapiens, UniProt P14416); experiment: ERK1/2 phosphorylation assay (Alphascreen SureFire); type: cell-based; design: expressed in transfected cells; details: for alpahscreen assay to detect pERK1/2, counts: agonist 10 μM (cariprazine 1 μM), single experiments n=1 to n=4
Procedure: ERK1/2 phosphorylation was measured using the Alphascreen SureFire ERK kit (PerkinElmer, Waltham, USA). Cells were seeded into 96-well plates at a density of 50,000 cells per well. After 5–7 h, cells were washed with PBS and incubated in serum-free DMEM overnight before assaying. Dose–response experiments were performed for each ligand at 37 °C in the presence of 0.1% ascorbic acid. […] The plate was shaken for 5 min at room temperature (RT) before transferring 5 μl of the lysates to a white 384-well Proxiplate (PerkinElmer, Waltham, USA). […] Plates were read using a Fusion-TM plate reader (PerkinElmer, Waltham, USA).

D2LR [2] = target: T1, D2LR; experiment: GαoB G protein activation (BRET); type: cell-based; design: expressed in transfected cells; details: for Emax Gao / Emax: relative to the maximal response of ropinirole; for Log(τ/KA) GαoB activation / ΔLog(τ/KA) GαoB activation: 5 minute timepoint; for Log(τ/KA) GαoB activation: Flp-In-CHO-D2LR; for ΔLog(τ/KA) GαoB activation: dopamine as reference agonist;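 for all read-outs here: Flp-In-CHO cells stably expressing D2LR, transiently transfected, agonist-stimulated in HBSS at 37 °C, net BRET read after coelenterazine, vehicle control subtracted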
Procedure: G protein activation. Flp-In-CHO cells stably expressing the D2LR were seeded at a density of 2,000,000 cells per 10-cm dish and were transfected the following day using polyethylenimine as the transfection reagent. […] Twenty-four hours after transfection, the cells were plated into 96-well CulturPlates (PerkinElmer) and grown overnight. The cells were equilibrated in Hank's balanced salt solution at 37 °C before starting the experiment. The cells were stimulated with the agonists for the indicated timeframes when the BRET readings were captured. Coelenterazine (Promega) was added at a final concentration of 5 μM at least 3 min before measurement. […] Net BRET was determined by subtraction of the vehicle control from the agonist-induced response.

D2LR [3] = target: T1, D2LR; experiment: xCELLigence cellular impedance (CI) assay; type: cell-based; design: expressed in transfected cells; details: for Emax CI / Emax: relative to the maximal response of ropinirole; for Log(τ/KA) Cellular impedance / ΔLog(τ/KA) Cellular impedance: 5 minute timepoint; for Log(τ/KA) Cellular impedance: Flp-In-CHO-D2LR; for ΔLog(τ/KA) Cellular impedance: dopamine as reference agonist
Procedure: Changes in CI on ligand stimulation were measured using the xCELLigence system (Roche Applied Science). The baseline cell index of each well of a 96-well E-plate was measured in the presence of growth medium before cell seeding. Cells were seeded at a density of 20,000 cells per well and grown for 16–20 h followed by 4 h serum starvation. Cells were treated with the ligands and the cell index values were obtained immediately after ligand stimulation every 15 s for a total time of 90 min. The retrieved cell index values were then normalized by dividing the cell index at the time of ligand addition followed by subtraction of the vehicle control at each time point.

D2LR [4] = target: T1, D2LR; experiment: Quantification of biased agonism between pathways (operational model, LogBias); type: cell-based; design: expressed in transfected cells
Source text: where Top and Bottom represent the maximal and minimal asymptote of the dose–response curve, [A] is the molar concentration of agonist and EC50 is the molar concentration of agonist required to give a response half way between bottom and top. Dose–response data were fitted to the following form of the operational model of agonism[12] to allow the quantification of biased agonism
where Em is the maximal possible response of the system, Basal is the basal level of response, KA represents the equilibrium dissociation constant of the agonist (A) and τ is an index of the signalling efficacy of the agonist that is defined as RT/KE, where RT is the total number of receptors and KE is the coupling efficiency of each agonist-occupied receptor, and n is the slope of the transducer function that links occupancy to response. The analysis assumes that the transduction machinery used for a given cellular pathway are the same for all agonists, such that the Em and transducer slope (n) are shared between agonists. Data for all compounds for each pathway were fit globally, to determine values of KA and τ. Biased agonism was quantified as previously described. […] The relative bias can then be calculated for each agonist at the two different signalling pathways by subtracting the Δlog(τ/KA) of one pathway from the other to give a ΔΔlog(τ/KA) value, which is a measure of bias. […] All affinity (pKi or pKA), potency (pEC50) and transduction ratio (log(τ/KA)) parameters were estimated as logarithms. When fold changes in bias are described, this was calculated by converting values of ΔΔlog(τ/KA) to the corresponding antilog value. […] Thus, as the application of t-tests and analyses of variance assume Gaussian distribution, estimating the parameters as logarithms allows valid statistical comparison. All results are expressed as the mean±s.e.m. As such, we performed a Brown–Forsythe test (Graphpad prism 6) to assure ourselves of equal variance when such parameters are compared.

D2LR [5] = target: T1, D2LR; experiment: biochemical
Procedure: (§1) The cells were harvested in PBS containing 2 mM EDTA and centrifuged at 300 g for 3 min. The resulting pellet was resuspended in ice-cold assay buffer (20 mM HEPES, 100 mM NaCl, 6 mM MgCl2, 1 mM EGTA and 1 mM EDTA pH 7.4) and the centrifugation step was repeated. The intact cell pellet was then resuspended in assay buffer and homogenized using a Polytron homogenizer. After centrifugation (1,000 g, 10 min), the pellet was discarded and the supernatant was recentrifuged at 30,000 g for 1 h at 4 °C using a Sorvall Evolution RC ultracentrifuge (Thermo Scientific). The resulting pellet was resuspended in assay buffer and stored in 250 μl aliquots at −80 °C. Membrane protein concentration was determined using the method of Bradford.
(§2) All radioligand binding experiments were conducted at 37 °C in a 1-ml reaction volume in assay buffer (20 mM HEPES, 100 mM NaCl, 6 mM MgCl2, 1 mM EGTA and 1 mM EDTA pH 7.4) containing 100 μM GppNHp and 0.1% ascorbic acid. In all cases, nonspecific binding was determined in the presence of 10 μM haloperidol. […] Filter-bound radioactivity was measured by scintillation spectrometry after the addition of 3.5 ml of Ultima Gold (PerkinElmer) using a Tri-Carb 2900TR liquid scintillation counter (PerkinElmer).
where Y denotes the percentage-specific binding, Top and Bottom denote the maximal and minimal asymptotes, respectively, IC50 denotes the X-value when the response is midway between Bottom and Top, and nH denotes the Hill slope factor. IC50 values obtained from the inhibition curves were converted to Ki values using the Cheng and Prusoff equation[61].

D2LR [6] = target: T1, D2LR; experiment: β-Arrestin-2 recruitment (BRET); type: cell-based; design: expressed in transfected cells; details: 5 minute timepoint
Procedure: β-Arrestin-2 recruitment. […] To assess β-arrestin-2 recruitment to the D2LR, the cells were transfected with 1 μg Rluc8-tagged D2LR, 4 μg YFP–β-arrestin-2 and 2 μg GRK2. […] The cells were incubated with Coelenterazine (Promega) at a final concentration of 5 μM for 5 min, followed by stimulation with the agonists for an additional 5 min before the BRET readings were captured.

D2LR [7] = target: T1, D2LR; experiment: [3H]spiperone kinetic (dissociation, association, competition association) binding; design: expressed in transfected cells; details: [3H]spiperone tracer
Procedure: as §1, §2
The kinetic parameters of unlabelled agonists were determined using the equations described by Motulsky and Mahan[31]. […]

[8] = 5 minute timepoint, dopamine as reference agonist

T1 sequence (P14416 whole entry, the tested form may be a part): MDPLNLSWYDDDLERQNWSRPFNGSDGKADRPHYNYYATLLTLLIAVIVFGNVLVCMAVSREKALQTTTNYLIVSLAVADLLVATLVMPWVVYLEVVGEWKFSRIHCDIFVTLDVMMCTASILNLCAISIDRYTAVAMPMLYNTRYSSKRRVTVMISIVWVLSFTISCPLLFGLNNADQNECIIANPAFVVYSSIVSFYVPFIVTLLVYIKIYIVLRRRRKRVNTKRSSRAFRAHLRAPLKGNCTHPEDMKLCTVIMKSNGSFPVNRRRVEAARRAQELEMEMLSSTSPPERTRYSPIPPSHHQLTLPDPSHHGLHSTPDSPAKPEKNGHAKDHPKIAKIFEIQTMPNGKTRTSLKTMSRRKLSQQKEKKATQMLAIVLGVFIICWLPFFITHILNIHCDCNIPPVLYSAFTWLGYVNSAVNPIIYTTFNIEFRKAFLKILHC

CCCN1CCC[C@@H](c2cccc(O)c2)C1 [S-3PPP, (S)-(-)-3-(3-hydroxyphenyl)-N-propylpiperidine]
alpahscreen assay to detect pERK1/2, counts (D2LR [1]; time 7.5 mins): 7.838 counts and 8.667 counts and 10.676 counts and 8.644 counts
alpahscreen assay to detect pERK1/2, counts (D2LR [1]; time 10 mins): 7.633 counts and 9.485 counts and 6.489 counts and 6.6386 counts
alpahscreen assay to detect pERK1/2, counts (D2LR [1]; time 15 mins): 3.509 counts and 3.085 counts and 2.82 counts and 2.443 counts
alpahscreen assay to detect pERK1/2, counts (D2LR [1]; time 20 mins): 2.3 counts and 2.162 counts and 3.001 counts and 1.823 counts
alpahscreen assay to detect pERK1/2, counts (D2LR [1]; time 30 mins): 1.331 counts and 1.287 counts and 2.069 counts and 1.34 counts
Emax Gao (D2LR [2]; 2 min): 64 ± 5.6
Emax Gao (D2LR [2]; 5 min): 68 ± 3.0
Log(τ/KA) GαoB activation (D2LR [2]): 6.40 ± 0.11
ΔLog(τ/KA) GαoB activation (D2LR [2]): -0.84 ± 0.14
Emax Gao (D2LR [2]; 10 min): 73 ±3.1
Emax Gao (D2LR [2]; 15 min): 76 ± 2.2
Emax Gao (D2LR [2]; 30 min): 74 ± 3.0
Emax Gao (D2LR [2]; 45 min): 72 ± 2.2
Emax Gao (D2LR [2]; 60 min): 72 ± 2.3
Emax Gao (D2LR [2]; 90 min): 77 ± 2.6
change in potency over time in the GαoB activation assay (D2LR [2]; time points from 2 to 90 min): twofold
Emax CI (D2LR [3]; 2 min): 46 ± 3.7
Emax CI (D2LR [3]; 5 min): 46 ± 3.0
Log(τ/KA) Cellular impedance (D2LR [3]): 7.34 ± 0.10
ΔLog(τ/KA) Cellular impedance (D2LR [3]): -1.22 ± 0.11
Emax CI (D2LR [3]; 10 min): 36 ± 2.5
Emax CI (D2LR [3]; 15 min): 32 ± 2.6
Emax CI (D2LR [3]; 30 min): 26 ± 2.5
Emax CI (D2LR [3]; 45 min): 23 ± 2.5
Emax CI (D2LR [3]; 60 min): 21 ± 2.5
Emax CI (D2LR [3]; 75 min): 19 ± 2.4
Emax CI (D2LR [3]; 90 min): 17 ± 2.3
bias between the activation of Gαi1 and all other assays apart from the activation of GαoB (D2LR [4]; 5 min, reference dopamine): less than tenfold
LogBias Gαi1 – CI (D2LR [4]; [8]): 0.64 ± 0.19
LogBias Gαi1 – GαoB (D2LR [4]; [8]): 0.27 ± 0.21
LogBias Gαi1 – cAMP (D2LR [4]; [8]): 0.83 ± 0.17
LogBias GαoB – CI (D2LR [4]; [8]): 0.37 ± 0.18
LogBias GαoB – cAMP (D2LR [4]; [8]): 0.56 ± 0.16
LogBias cAMP – CI (D2LR [4]; [8]): -0.19 ± 0.13

O=c1[nH]c2cccc(N3CCN(Cc4cccc(-c5ccccc5)c4)CC3)c2o1 [Bifeprunox, bifeprunox]
Ki (D2LR [5]): 0.0437 nM
Log(τ/KA) pERK1/2 (D2LR [1]; 5 minute timepoint, Flp-In-CHO-D2LR): 7.32 ± 0.10
ΔLog(τ/KA) pERK1/2 (D2LR [1]; [8]): -1.24 ± 0.11
alpahscreen assay to detect pERK1/2, counts (D2LR [1]; time 10 mins): 15.6263 counts and 16.6076 counts and 20.0466 counts and 28.1436 counts
alpahscreen assay to detect pERK1/2, counts (D2LR [1]; time 15 mins): 10.0482 counts and 8.477 counts and 14.6057 counts and 15.1817 counts
Log(τ/KA) β-arrestin2 (D2LR [6]; ND = no agonist activity detected): 5.75 ± 0.16
ΔLog(τ/KA) β-arrestin2 (D2LR [6]; dopamine as reference agonist): -0.58 ± 0.21
EC50 (D2LR [2]; 2 min): 52.5 nM
Emax (D2LR [2]; 2 min): 94 ± 3.8%
EC50 (D2LR [2]; 5 min): 26.9 nM
Emax (D2LR [2]; 5 min): 80%
Log(τ/KA) GαoB activation (D2LR [2]): 7.50 ± 0.10
ΔLog(τ/KA) GαoB activation (D2LR [2]): 0.26 ± 0.13
EC50 (D2LR [2]; 10 min): 12.9 nM
Emax (D2LR [2]; 10 min): 77%
EC50 (D2LR [2]; 15 min): 7.59 nM
Emax (D2LR [2]; 15 min): 79%
EC50 (D2LR [2]; 30 min): 4.07 nM
Emax (D2LR [2]; 30 min): 87 ± 2.5%
EC50 (D2LR [2]; 45 min): 3.02 nM
Emax (D2LR [2]; 45 min): 88 ± 2.4%
EC50 (D2LR [2]; 60 min): 3.24 nM
EC50 (D2LR [2]; 75 min): 2.19 nM
EC50 (D2LR [2]; 90 min): 2.14 nM
Emax (D2LR [2]; 90 min): 90 ± 3.2%
EC50 (D2LR [3]; 2 min): 16.2 nM
Emax (D2LR [3]; 2 min): 61 ± 4%
EC50 (D2LR [3]; 5 min): 3.47 nM
Emax (D2LR [3]; 5 min): 67 ± 3%
Log(τ/KA) Cellular impedance (D2LR [3]): 8.30 ± 0.07
ΔLog(τ/KA) Cellular impedance (D2LR [3]): -0.25 ± 0.08
EC50 (D2LR [3]; 10 min): 1.58 nM
Emax (D2LR [3]; 10 min): 57 ± 2.5%
EC50 (D2LR [3]; 15 min): 0.912 nM
Emax (D2LR [3]; 15 min): 58 ± 2.8%
EC50 (D2LR [3]; 30 min): 0.55 nM
Emax (D2LR [3]; 30 min): 53 ± 3.1%
EC50 (D2LR [3]; 45 min): 0.339 nM
Emax (D2LR [3]; 45 min): 51 ± 2.3%
EC50 (D2LR [3]; 60 min): 0.263 nM
Emax (D2LR [3]; 60 min): 49%
EC50 (D2LR [3]; 75 min): 0.229 nM
Emax (D2LR [3]; 75 min): 46%
EC50 (D2LR [3]; 90 min): 0.2 nM
Emax (D2LR [3]; 90 min): 44%
koff (D2LR [7]; Flp-In-CHO-D2LR membranes, 100 μM GppNHp, 37 °C): 0.000167 s⁻¹
Kd (D2LR [7]; read-out: pKd (affinity determined from kinetic parameters) (converted)): 0.1 nM
LogBias CI – pERK1/2 (D2LR [4]; [8]): 0.99 ± 0.14
LogBias Gαi1 – CI (D2LR [4]; [8]): 1.68 ± 0.16
LogBias Gαi1 – GαoB (D2LR [4]; [8]): 1.17 ± 0.19
LogBias Gαi1 – cAMP (D2LR [4]; [8]): 1.61 ± 0.16
LogBias Gαi1 – pERK1/2 (D2LR [4]; [8]): 2.67 ± 0.18
LogBias GαoB – CI (D2LR [4]; [8]): 0.51 ± 0.15
LogBias GαoB – cAMP (D2LR [4]; [8]): 0.43 ± 0.14
LogBias GαoB – pERK1/2 (D2LR [4]; [8]): 1.50 ± 0.17
LogBias cAMP – CI (D2LR [4]; [8]): 0.08 ± 0.11
LogBias cAMP – pERK1/2 (D2LR [4]; [8]): 1.06 ± 0.13
LogBias β-arr2 – CI (D2LR [4]; [8]): -0.33 ± 0.22
LogBias β-arr2 – Gαi1 (D2LR [4]; [8]): -2.01 ± 0.25
LogBias β-arr2 – GαoB (D2LR [4]; [8]): -0.84 ± 0.24
LogBias β-arr2 – cAMP (D2LR [4]; [8]): -0.41 ± 0.22
LogBias β-arr2 – pERK1/2 (D2LR [4]; [8]): 0.66 ± 0.24
